Data reported in patent US9321790B2, “Pyrimidinone derivatives as antimalarial agents” (SANOFI, priority 2012, dated 2016).

Experiments:
[1] = test system: Plasmodium falciparum (strain NF54); experiment: Antimalarial activity test: growth of Plasmodium falciparum in infected human erythrocytes, 3H-hypoxanthine incorporation; type: cell-based; conditions: strain NF54 sensitive to chloroquine, 72 h total incubation
Procedure, shortened: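 Chloroquine-sensitive NF54 parasites in human erythrocytes (1.25% hematocrit, 0.15% parasitemia) were grown in hypoxanthine-free RPMI 1640 with HEPES and Albumax II, with compound in twofold serial dilution, at 37 °C under 93% N2/4% CO2/3% O2. After 48 h, 3H-hypoxanthine (0.5 μCi) was added for 24 h. Scintillation counts versus drug-free control gave IC50.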

human PI3Kα = human PI3Kα (Homo sapiens (Human), UniProt P42336); experiment: Human PI3Kα activity test (luciferin/luciferase ATP consumption, KinaseGlo); type: biochemical; conditions: PI3Kα (p110α/p85α), 50 μM PIP2, 2 μM ATP, 90 minutes; read-out: IC50 Human PI3Kα
Method: The test uses a luciferin/luciferase system to measure the concentration of ATP and its consumption during the enzymatic reaction.
After 90 minutes, the reaction is quenched by adding 20 μl/well of KinaseGlo reagent (Promega V6713). After 10 minutes in the dark, the luminescence is read using a PHERAStar microplate reader (reading at 0.8 sec/well).

[2] = Plasmodium falciparum, Erythrocyte

human PI3Kα, sequence (P42336 whole entry): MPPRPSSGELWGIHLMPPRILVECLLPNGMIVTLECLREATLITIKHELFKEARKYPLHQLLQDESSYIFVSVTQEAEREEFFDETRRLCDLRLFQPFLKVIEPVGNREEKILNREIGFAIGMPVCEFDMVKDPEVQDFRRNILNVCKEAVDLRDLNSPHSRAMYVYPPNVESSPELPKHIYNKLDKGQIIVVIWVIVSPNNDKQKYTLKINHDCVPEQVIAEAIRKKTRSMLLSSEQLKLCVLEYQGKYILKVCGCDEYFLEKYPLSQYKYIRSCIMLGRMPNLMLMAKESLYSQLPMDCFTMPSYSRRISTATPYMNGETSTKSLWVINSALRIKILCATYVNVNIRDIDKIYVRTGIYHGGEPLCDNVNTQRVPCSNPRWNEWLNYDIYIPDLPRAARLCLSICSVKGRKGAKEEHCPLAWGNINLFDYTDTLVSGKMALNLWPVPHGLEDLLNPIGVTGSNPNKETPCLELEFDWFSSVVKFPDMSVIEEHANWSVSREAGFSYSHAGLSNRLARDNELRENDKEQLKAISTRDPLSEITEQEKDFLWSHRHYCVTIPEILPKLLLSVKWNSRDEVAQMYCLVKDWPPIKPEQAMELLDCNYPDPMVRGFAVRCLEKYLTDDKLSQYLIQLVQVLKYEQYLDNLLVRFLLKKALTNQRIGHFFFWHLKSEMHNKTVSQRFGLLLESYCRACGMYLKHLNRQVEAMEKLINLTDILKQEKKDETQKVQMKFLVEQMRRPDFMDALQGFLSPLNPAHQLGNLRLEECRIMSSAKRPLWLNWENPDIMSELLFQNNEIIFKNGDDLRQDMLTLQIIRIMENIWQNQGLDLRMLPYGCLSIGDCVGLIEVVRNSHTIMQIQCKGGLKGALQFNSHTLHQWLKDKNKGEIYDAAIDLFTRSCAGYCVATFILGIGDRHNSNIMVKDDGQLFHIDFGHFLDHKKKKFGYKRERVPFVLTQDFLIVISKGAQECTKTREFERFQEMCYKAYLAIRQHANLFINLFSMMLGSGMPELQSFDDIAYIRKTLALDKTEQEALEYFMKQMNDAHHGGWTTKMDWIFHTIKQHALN
human PI3Kα, sequence (P27986 whole entry partner): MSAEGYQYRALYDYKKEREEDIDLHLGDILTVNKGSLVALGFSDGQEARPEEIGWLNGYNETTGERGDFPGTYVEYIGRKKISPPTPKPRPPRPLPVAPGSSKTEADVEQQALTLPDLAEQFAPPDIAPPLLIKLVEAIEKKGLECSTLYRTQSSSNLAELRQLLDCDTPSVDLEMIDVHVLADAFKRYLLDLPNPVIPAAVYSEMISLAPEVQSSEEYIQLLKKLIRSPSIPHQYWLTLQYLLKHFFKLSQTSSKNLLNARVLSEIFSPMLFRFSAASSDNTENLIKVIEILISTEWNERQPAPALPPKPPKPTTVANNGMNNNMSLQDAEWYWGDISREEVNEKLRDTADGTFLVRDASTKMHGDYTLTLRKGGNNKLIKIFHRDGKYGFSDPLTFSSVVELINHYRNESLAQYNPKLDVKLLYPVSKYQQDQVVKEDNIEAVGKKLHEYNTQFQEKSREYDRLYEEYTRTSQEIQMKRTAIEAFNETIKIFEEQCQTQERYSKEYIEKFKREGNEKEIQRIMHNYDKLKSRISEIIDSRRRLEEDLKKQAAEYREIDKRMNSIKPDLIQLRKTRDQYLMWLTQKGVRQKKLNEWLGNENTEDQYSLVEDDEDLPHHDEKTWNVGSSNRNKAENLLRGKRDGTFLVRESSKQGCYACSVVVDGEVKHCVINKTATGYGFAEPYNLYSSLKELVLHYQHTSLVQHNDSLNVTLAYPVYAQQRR

Row | Structure (SMILES) | IC50 [1, 2] | IC50 (human PI3Kα) | IC50 [1]
1 | Cc1nc(CN2c3nc(N4C[C@@H]5C[C@H]4CO5)cc(=O)n3CC[C@H]2C(F)(F)F)no1 [Compound 59, (8S)-9-(5-Methyl-[1,2,4]oxadiazol-3-ylmethyl)-2-(1S,4S)-2-oxa-5-azabicyclo[2.2.1]hept-5-yl-8-trifluoromethyl-6,7,8,9-tetrahydropyrimido[1,2-a]pyrimidin-4-one] | 87 nM | > 10000 nM | 
2 | O=C(CN1c2nc(N3C[C@@H]4C[C@H]3CO4)cc(=O)n2CC[C@H]1C(F)(F)F)c1cccnc1C(F)(F)F [Compound 60, (8S)-2-(1S,4S)-2-Oxa-5-azabicyclo[2.2.1]hept-5-yl-9-[2-oxo-2-(2-trifluoromethylpyrid-3-yl)ethyl]-8-trifluoromethyl-6,7,8,9-tetrahydropyrimido[1,2-a]pyrimidin-4-one] |  | > 10000 nM | 19 nM
3 | O=C(CN1c2nc(N3C[C@@H]4C[C@H]3CO4)cc(=O)n2CC[C@H]1C(F)(F)F)c1ccc2nsnc2c1 [Compound 61, (8S)-9-(2-Benzo[1,2,5]thiadiazol-5-yl-2-oxoethyl)-2-(1S,4S)-2-oxa-5-azabicyclo[2.2.1]hept-5-yl-8-trifluoromethyl-6,7,8,9-tetrahydropyrimido[1,2-a]pyrimidin-4-one] | 130 nM | > 10000 nM | 
4 | O=C(CN1c2nc(N3C[C@@H]4C[C@H]3CO4)cc(=O)n2CC[C@H]1C(F)(F)F)C1CCOCC1 [Compound 62, (8S)-2-(1S,4S)-2-Oxa-5-azabicyclo[2.2.1]hept-5-yl-9-[2-oxo-2-(tetrahydropyran-4-yl)ethyl]-8-trifluoromethyl-6,7,8,9-tetrahydropyrimido[1,2-a]pyrimidin-4-one] | 11 nM | > 10000 nM | 
5 | O=C(CN1c2nc(N3C[C@@H]4C[C@H]3CO4)cc(=O)n2CC[C@H]1C(F)(F)F)c1ccc(OCCF)nc1 [Compound 63, (S)-9-{2-[6-(2-fluoroethoxy)pyrid-3-yl]-2-oxoethyl}-2-(1S,4S)-2-oxa-5-azabicyclo[2.2.1]hept-5-yl-8-trifluoromethyl-6,7,8,9-tetrahydropyrimido[1,2-a]pyrimidin-4-one] | 384 nM | > 7200 nM | 
6 | O=C(CN1c2nc(N3C[C@@H]4C[C@H]3CO4)cc(=O)n2CC[C@H]1C(F)(F)F)c1ccc(OCCF)c(F)c1 [Compound 64, (8S)-9-{2-[3-Fluoro-4-(2-fluoroethoxyl)phenyl]-2-oxoethyl}-2-(1S,4S)-2-oxa-5-azabicyclo[2.2.1]hept-5-yl-8-trifluoromethyl-6,7,8,9-tetrahydropyrimido[1,2-a]pyrimidin-4-one] | 39 nM | > 10000 nM | 
7 | COc1ncccc1C(=O)CN1c2nc(N3C[C@@H]4C[C@H]3CO4)cc(=O)n2CC[C@H]1C(F)(F)F [Compound 65, (8S)-9-[2-(2-Methoxypyrid-3-yl)-2-oxoethyl]-2-(1S,4S)-2-oxa-5-azabicyclo[2.2.1]hept-5-yl-8-trifluoromethyl-6,7,8,9-tetrahydropyrimido[1,2-a]pyrimidin-4-one] | 21 nM | > 10000 nM | 
8 | Cn1cncc1C(=O)CN1c2nc(N3C[C@@H]4C[C@H]3CO4)cc(=O)n2CC[C@H]1C(F)(F)F [Compound 66, (8S)-9-[2-(3-Methyl-3H-imidazol-4-yl)-2-oxoethyl]-2-(1S,4S)-2-oxa-5-azabicyclo[2.2.1]hept-5-yl-8-trifluoromethyl-6,7,8,9-tetrahydropyrimido[1,2-a]pyrimidin-4-one] | 73 nM | > 10000 nM | 
9 | O=C(CN1c2nc(N3C[C@@H]4C[C@H]3CO4)cc(=O)n2CC[C@H]1C(F)(F)F)C1CC1 [Compound 67, (8S)-9-(2-Cyclopropyl-2-oxoethyl)-2-(1S,4S)-2-oxa-5-azabicyclo[2.2.1]hept-5-yl-8-trifluoromethyl-6,7,8,9-tetrahydropyrimido[1,2-a]pyrimidin-4-one] | 43 nM | 4000 nM | 
10 | O=C(CN1c2nc(N3C[C@@H]4C[C@H]3CO4)cc(=O)n2CC[C@H]1C(F)(F)F)c1ccccn1 [Compound 68, (8S)-2-(1S,4S)-2-oxa-5-azabicyclo[2.2.1]hept-5-yl-9-(2-oxo-2-pyrid-2-ylethyl)-8-trifluoromethyl-6,7,8,9-tetrahydropyrimido[1,2-a]pyrimidin-4-one] | 27 nM | 6600 nM | 
11 | Cn1nccc1C(=O)CN1c2nc(N3C[C@@H]4C[C@H]3CO4)cc(=O)n2CC[C@H]1C(F)(F)F [Compound 69, (8S)-9-[2-(2-methyl-2H-pyrazol-3-yl)-2-oxoethyl]-2-(1S,4S)-2-oxa-5-azabicyclo[2.2.1]hept-5-yl-8-trifluoromethyl-6,7,8,9-tetrahydropyrimido[1,2-a]pyrimidin-4-one] | 96 nM | > 10000 nM | 
12 | CN(C)C(=O)COc1ccc(CCN2c3nc(N4CC5CCC(C4)O5)cc(=O)n3C[C@@]2(C)C(F)(F)F)cc1 [Compound 70, N, N-dimethyl-2-(4-{2-[(S)-2-methyl-7-(8-oxa-3-azabicyclo[3.2.1]oct-3-yl)-5-oxo-2-trifluoromethyl-2,3-dihydro-5H-imidazo[1,2-a]pyrimidin-1-yl]ethyl}phenoxy)acetamide] | 12 nM | 1000 nM | 
13 | COc1cc(F)ccc1[C@H](O)CN1c2nc(N3CC4CCC(C3)O4)cc(=O)n2CC[C@H]1C(F)(F)F [Compound 71, (8S)-9-[(S)-2-(4-fluoro-2-methoxyphenyl)-2-hydroxyethyl]-2-(8-oxa-3-azabicyclo[3.2.1]oct-3-yl)-8-trifluoromethyl-6,7,8,9-tetrahydropyrimido[1,2-a]pyrimidin-4-one] | 23 nM | 810 nM | 

Further lines, results first:

Row | IC50 [1, 2] | IC50 (human PI3Kα) | IC50 [1] | Structure (SMILES)
14 | 37 nM | 730 nM |  | C[C@@]1(C(F)(F)F)Cn2c(nc(N3CC4CCC(C3)O4)cc2=O)N1CCc1ccc(O)cc1 [Compound 72, (S)-1-[2-(4-hydroxyphenyl)ethyl]-2-methyl-7-(8-oxa-3-azabicyclo[3.2.1]oct-3-yl)-2-trifluoromethyl-2,3-dihydro-1H-imidazo[1,2-a]pyrimidin-5-one]
15 | 44 nM | 2500 nM |  | O=C(CN1c2nc(N3CC4CCC(C3)O4)cc(=O)n2CC[C@H]1C(F)(F)F)c1ccccc1 [Compound 73, (8S)-2-(8-Oxa-3-azabicyclo[3.2.1]oct-3-yl)-9-(2-oxo-2-phenylethyl)-8-trifluoromethyl-6,7,8,9-tetrahydropyrimido[1,2-a]pyrimidin-4-one]
16 | 68 nM | 820 nM |  | CN(C)CCOc1ccc(CCN2c3nc(N4CC5CCC(C4)O5)cc(=O)n3C[C@@]2(C)C(F)(F)F)cc1 [Compound 74, (S)-1-{2-[4-(2-dimethylaminoethoxy)phenyl]ethyl}-2-methyl-7-(8-oxa-3-azabicyclo[3.2.1]oct-3-yl)-2-trifluoromethyl-2,3-dihydro-1H-imidazo[1,2-a]pyrimidin-5-one]
17 | 80 nM | ≥ 10000 nM |  | O=C(CN1c2nc(N3CC4CCC(C3)O4)cc(=O)n2CC[C@H]1C(F)(F)F)c1ccncc1 [Compound 75, (8S)-2-(8-oxa-3-azabicyclo[3.2.1]oct-3-yl)-9-(2-oxo-2-pyrid-4-ylethyl)-8-trifluoromethyl-6,7,8,9-tetrahydropyrimido[1,2-a]pyrimidin-4-one]
18 | 93 nM | 950 nM |  | COc1ccc(CCN2c3nc(N4CC5CCC(C4)O5)cc(=O)n3C[C@@]2(C)C(F)(F)F)cc1 [Compound 76, (S)-1-[2-(4-Methoxyphenyl)ethyl]-2-methyl-7-(8-oxa-3-azabicyclo[3.2.1]oct-3-yl)-2-trifluoromethyl-2,3-dihydro-1H-imidazo[1,2-a]pyrimidin-5-one]
19 | 160 nM | 820 nM |  | C[C@@]1(C(F)(F)F)Cn2c(nc(N3CC4CCC(C3)O4)cc2=O)N1CCCc1ccccc1 [Compound 77, (S)-2-Methyl-7-(8-oxa-3-azabicyclo[3.2.1]oct-3-yl)-1-(3-phenylpropyl)-2-trifluoromethyl-2,3-dihydro-1H-imidazo[1,2-a]pyrimidin-5-one]
20 | 360 nM | 250 nM |  | CN(C)CCCOc1ccc(CCN2c3nc(N4CC5CCC(C4)O5)cc(=O)n3C[C@@]2(C)C(F)(F)F)cc1 [Compound 78, (S)-1-{2-[4-(3-Dimethylaminopropoxyl)phenyl]ethyl}-2-methyl-7-(8-oxa-3-azabicyclo[3.2.1]oct-3-yl)-2-trifluoromethyl-2,3-dihydro-1H-imidazo[1,2-a]pyrimidin-5-one]
21 | 640 nM | 1600 nM |  | C[C@@]1(C(F)(F)F)Cn2c(nc(N3CC4CCC(C3)O4)cc2=O)N1C[C@@H](O)c1ccccc1 [Compound 79, (2S)-1-((S)-2-Hydroxy-2-phenylethyl)-2-methyl-7-(8-oxa-3-azabicyclo[3.2.1]oct-3-yl)-2-trifluoromethyl-2,3-dihydro-1H-imidazo[1,2-a]pyrimidin-5-one]
22 | 9 nM | 340 nM |  | O=c1cc(N2CC3CCC(C2)O3)nc2n1CC[C@@H](C(F)(F)F)N2C[C@@H](O)c1cc2ccccc2s1 [Compound 82, (8S)-9-((R)-2-Benzo[b]thiophen-2-yl-2-hydroxyethyl)-2-(8-oxa-3-azabicyclo[3.2.1]oct-3-yl)-8-trifluoromethyl-6,7,8,9-tetrahydropyrimido[1,2-a]pyrimidin-4-one]
23 | 10 nM | 190 nM |  | O=c1cc(N2CC3CCC(C2)O3)nc2n1CC[C@@H](C(F)(F)F)N2CCc1ccc(O)cc1 [Compound 83, (8S)-9-[2-(4-Hydroxyphenyl)ethyl]-2-(8-oxa-3-azabicyclo[3.2.1]oct-3-yl)-8-trifluoromethyl-6,7,8,9-tetrahydropyrimido[1,2-a]pyrimidin-4-one]
24 | 110 nM | 200 nM |  | O=c1cc(N2CC3CCC(C2)O3)nc2n1CC[C@@H](C(F)(F)F)N2CCCc1ccccc1 [Compound 84, (8S)-2-(8-oxa-3-azabicyclo[3.2.1]oct-3-yl)-9-(3-phenylpropyl)-8-trifluoromethyl-6,7,8,9-tetrahydropyrimido[1,2-a]pyrimidin-4-one]
